From patent US10294202B2, “Pyrrolidinones as herbicides” (FMC Corporation, priority 2013, dated 2019)

Columns and labels:
chamomile = experiment: Test D pre-/postemergence herbicide test; format: in vivo, Matricaria inodora; settings: for Plant response rating: Chamomile, scale 0 to 100; for Plant response rating, Chamomile: scale 0 to 100 (0 no effect, 100 complete control)
In short: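 Plants were sown in silt loam for preemergence spraying or in a peat moss/vermiculite mix for postemergence spraying at 2 to 18 cm height. Formulations used a non-phytotoxic solvent mixture with a surfactant. After 7 to 21 days, responses were scored visually from 0 (no effect) to 100 (complete control).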

wild poinsettia = experiment: Test E preemergence herbicide test; format: in vivo, Euphorbia heterophylla; parameters: key: 0 = no effect, 100 = complete control
Description: Seeds of plant species selected from corn (Zea mays), soybean (Glycine max), velvetleaf (Abutilon theophrasti), lambsquarters (Chenopodium album), wild poinsettia (Euphorbia heterophylla), pigweed, palmer (palmer pigweed, Amaranthus palmeri), waterhemp (common waterhemp, Amaranthus rudis), surinam grass (Brachiaria decumbens), crabgrass, large (large crabgrass, Digitaria sanguinalis), crabgrass, Brazil (Brazilian crabgrass, Digitaria horizontalis), panicum, fall (fall panicum, Panicum dichotomiflorum), foxtail, giant (giant foxtail, Setaria faberii), foxtail, green (green foxtail, Setaria viridis), goosegrass (Eleusine indica), johnsongrass (Sorghum halepense), ragweed (common ragweed, Ambrosia elatior), barnyardgrass (Echinochloa crus-galli), sandbur (southern sandbur, Cenchrus echinatus), arrowleaf […] rhombifolia), ryegrass, Italian (Italian ryegrass, Lolium multiflorum), dayflower, VA (Virginia dayflower, Commelina virginica), field bindweed (Convolvulus arvensis), morningglory (Ipomoea coccinea), nightshade (eastern black nightshade, Solanum ptycanthum), kochia (Kochia scoparia), nutsedge, yellow (yellow nutsedge, Cyperus esculentus), cocklebur (common cocklebur, Xanthium strumarium), smartweed (ladysthumb smartweed, Polygonum Persicaria) and beggarticks (hairy beggarticks, Bidens pilosa), were planted into a silt loam soil and treated preemergence with test chemicals formulated in a non-phytotoxic solvent mixture which included a surfactant. Treated plants and controls were maintained in a greenhouse for 21 days, after which time all species were compared to controls and visually evaluated. Plant response ratings, summarized in Table E, are based on a scale of 0 to 100 where 0 is no effect and 100 is complete control. A dash (-) response means no test result.

chickweed = experiment: Test D pre-/postemergence herbicide test; format: in vivo, Stellaria media; settings: for Plant response rating: Chickweed, scale 0 to 100; for Plant response rating, Chickweed: scale 0 to 100 (0 no effect, 100 complete control)
Description: Seeds of plant species selected from bluegrass (annual bluegrass, Poa annua), blackgrass (Alopecurus myosuroides), canarygrass (littleseed canarygrass, Phalaris minor), chickweed (common chickweed, Stellaria media), galium (catchweed bedstraw, Galium aparine), bromegrass, downy (downy bromegrass, Bromus tectorum), field poppy (Papaver rhoeas), field violet (Viola arvensis), foxtail, green (green foxtail, Setaria viridis), deadnettle (henbit deadnettle, Lamium amplexicaule), ryegrass, Italian (Italian ryegrass, Lolium multiflorum), kochia (Kochia scoparia), lambsquarters (Chenopodium album), oilseed rape (Brassica napus), pigweed (Amaranthus retroflexus), chamomile (scentless chamomile, Matricaria inodora), Russian thistle (Salsola kali), speedwell (bird's-eye speedwell, Veronica persica), barley, spring (spring barley, Hordeum vulgare), wheat, spring (spring wheat, Triticum aestivum), buckwheat, wild (wild buckwheat, Polygonum convolvulus), mustard, wild (wild mustard, Sinapis arvensis), oat, wild (wild oat, Avena fatua), radish, wild (wild radish, Raphanus raphanistrum), […]), barley, winter (winter barley, Hordeum vulgare), and wheat, winter (winter wheat, Triticum aestivum) were planted into a silt loam soil and treated preemergence with test chemicals formulated in a non-phytotoxic solvent mixture which included a surfactant. At the same time, these species were planted in pots containing Redi-Earth® planting medium (Scotts Company, 14111 Scottslawn Road, Marysville, Ohio 43041) comprising spaghnum peat moss, vermiculite, wetting agent and starter nutrients and treated with postemergence applications of the test chemicals formulated in the same manner. Plants ranged in height from 2 to 18 cm (1- to 4-leaf stage). Treated plants and controls were maintained in a controlled growth environment for 7 to 21 days after which time all species were compared to controls and visually evaluated. Plant response ratings, summarized in Table D, are based on a scale of 0 to 100 where 0 is no effect and 100 is complete control. A dash (-) response means no test result.

SMILES	Plant response rating (chamomile; Postemergence, 31 g ai/ha)	Plant response rating (chamomile; Postemergence, 62 g ai/ha)	Plant response rating (chamomile; Postemergence, 125 g ai/ha)	Plant response rating (chamomile; Postemergence, 250 g ai/ha)	Plant response rating, Chamomile (chamomile; Preemergence, 62 g ai/ha)	Plant response rating, Chamomile (chamomile; Preemergence, 31 g ai/ha)	Plant response rating (chamomile; Preemergence, 125 g ai/ha)	Plant response rating (chamomile; Preemergence, 250 g ai/ha)	Plant response rating, Poinsettia, Wild (wild poinsettia; 31 g ai/ha)	Plant response rating, Poinsettia, Wild (wild poinsettia; 62 g ai/ha)	Plant response rating, Poinsettia, Wild (wild poinsettia; 125 g ai/ha)	Plant response rating, Poinsettia, Wild (wild poinsettia; 250 g ai/ha)	Plant response rating (chickweed; Postemergence, 31 g ai/ha)	Plant response rating (chickweed; Postemergence, 62 g ai/ha)	Plant response rating (chickweed; Postemergence, 125 g ai/ha)	Plant response rating (chickweed; Postemergence, 250 g ai/ha)	Plant response rating, Chickweed (chickweed; Preemergence, 62 g ai/ha)	Plant response rating, Chickweed (chickweed; Preemergence, 31 g ai/ha)	Plant response rating (chickweed; Preemergence, 125 g ai/ha)	Plant response rating (chickweed; Preemergence, 250 g ai/ha)	further results
O=C1NCC(c2ccc(C(F)(F)F)cc2)C1C(=O)Nc1cccc(F)c1F (stereo not shown) [Compound 80, N-(2,3-difluorophenyl)-2-oxo-4-[4-(trifluoromethyl)phenyl]-3-pyrrolidinecarboxamide]	20	30	35	50	80	80	80	85	0	0	0	0	35	45	85	85	100	85	100	100	Plant response rating, Poinsettia, Wild (wild poinsettia; 16 g ai/ha): 0
O=C1NC[C@H](c2cccc(C(F)(F)F)c2)[C@H]1C(=O)Nc1ccccc1F [Compound 204, (3R,4S)—N-(2-fluorophenyl)-2-oxo-4-[3-(trifluoromethyl)phenyl]-3-pyrrolidinecarboxamide]	–	–	–	–	–	–	–	–	0	0	20	20	–	–	–	–	100	100	–	100	Plant response rating, Chickweed (chickweed; Preemergence, 125 g ai/ha): 100
O=C1NCC(c2ccc(OC(F)F)cc2)C1C(=O)Nc1cccc(F)c1F (racemic) [Compound 350]	–	–	–	–	–	–	–	–	0	0	0	30	–	–	–	–	–	–	–	–	–
O=C1NCC(c2ccc(C(F)(F)F)cc2)C1C(=O)Nc1cccc(F)c1F (racemic) [Compound 202]	5	60	65	60	65	60	75	100	0	0	25	65	75	75	80	80	80	45	90	95	–
O=C1NC[C@H](c2cccc(C(F)(F)F)c2)[C@H]1C(=O)Nc1cccc(F)c1F [Compound 206]	–	–	–	–	–	–	–	–	0	10	0	25	–	–	–	–	100	30	–	95	Plant response rating, Chickweed (chickweed; Preemergence, 125 g ai/ha): 70
